Source: patent US9346797B1, “2-amino 6-(difluoromethyl)-5,5-difluoro-6-phenyl-3,4,5,6-tetrahydropyridines as BACE1 inhibitors” (H. Lundbeck A/S, priority 2014, dated 2016)
Like-named read-outs stand apart in the source and are kept apart here.

Assay: Bioanalysis of brain and plasma samples (exposure, UPLC-MS/MS)
Assay type: in vivo
Conditions: male, Sprague Dawley, po, rat, 3 hours post dose; for Kp at 3 h: brain/plasma, read-out: Brain/Plasma ratio; for concentration at 3 h: read-out: Exp
Experimental: Young adult Male Sprague Dawley rats of approximately 250 g weight were purchased from Charles River and received 0-30 mg/kg of vehicle (10% HP betaCD+1M MeSO4, pH 2.5) or test compounds (dissolved in vehicle) only by oral gavage (p.o). The compounds are dosed at a volume of 5 ml/kg. Cohorts of 5-10 animals were established for each treatment condition.
At T=180 minutes after initial dosing the animals were stunned and decapitated with a guillotine. Trunk-blood was sampled in EDTA coated tubes after decapitation of the animal. The blood was centrifuged at 2200 G at 4° C. for 15 minutes and the plasma was collected and frozen at −80° C. The blood was aliquoted for Aβ ELISA and DMPK analysis Immediately following sacrifice, the brain was extracted and split into 2 halves. The right hemibrains were snap frozen on dry ice and stored at −80° C. The left half was dissected; with the front forebrain taken for Aβ ELISA and the remainder used for DMPK analysis. These samples were also snap frozen on dry ice and stored at −80° C. until use for analysis.
TC was determined in plasma and brain homogenate using UltraPerformance LC® (UPLC®) chromatography followed by tandem-MS (MS/MS) detection.
Brain homogenate was prepared by homogenizing the brain 1:4 (v/v) with water:2-propanol:DMSO (50:30:20 v/v/v) followed by centrifugation and collection of the supernatant. Calibration standards and QC samples were prepared using a Hamilton robot. 150 μL of ISTD in acetonitrile (1 ng/mL ISTD) was added to 25 μL of calibration standards, QC samples and test samples (plasma and brain homogenate) using a Biomek robot. After centrifugation (6200 g, 4° C., 20 min) 100 μL supernatant from each sample was transferred to a new plate and mixed with 100 μL water with 0.1% formic acid using a Biomek robot (method file InVivo transfer). After a quick centrifugation (6200 g, 4° C., 5 min) the samples were placed in the auto-sampler.
MS/MS detection was done with an Applied Biosystems Sciex API 4000 instrument in positive-ion electrospray ionisation mode. TC and ISTD were detected at a parent>daughter mass to charge ratio (m/z). Nitrogen was used for the nebulizer and collision gases. The peak area correlated linearly with the plasma and brain concentration of the analytes in the range of 1.00-1000 ng/mL plasma and 5.00-5000 ng/g brain (corrected for dilution). If the plasma/brain sample drug concentration was above 1000 ng/mL or 5000 ng/g, the sample was diluted appropriately in blank plasma/blank brain homogenate before analysis. […]

SMILES	Kp at 3 h (10 mg/kg p.o.)	Kp at 3 h (30 mg/kg p.o.)	concentration at 3 h (brain, 10 mg/kg p.o.)	concentration at 3 h (brain, 30 mg/kg p.o.)	concentration at 3 h (plasma, 10 mg/kg p.o.)	concentration at 3 h (plasma, 30 mg/kg p.o.)
COc1ccc(C(=O)Nc2ccc(F)c([C@@]3(C(F)F)N=C(N)CCC3(F)F)c2)nc1 [Compound 5, (S)—N-(3-(6-amino-2-(difluoromethyl)-3,3-difluoro-2,3,4,5-tetrahydropyridin-2-yl)-4-fluorophenyl)-5-methoxypicolinamide]	0.28	0.29	187 ng/g	959 ng/g	660 ng/g	3350 ng/g
COc1cnc(C(=O)Nc2ccc(F)c([C@@]3(C(F)F)N=C(N)CCC3(F)F)c2)cn1 [Compound 3, (S)—N-(3-(6-amino-2-(difluoromethyl)-3,3-difluoro-2,3,4,5-tetrahydropyridin-2-yl)-4-fluorophenyl)-5-methoxypyrazine-2-carboxamide]	0.3	0.32	511 ng/g	2280 ng/g	1680 ng/g	7060 ng/g
